Experimental data published in publication PMC9551276, “Design, synthesis and biological evaluation of novel orthosteric-allosteric ligands of the cannabinoid receptor type 2 (CB2R)” (Frontiers in Chemistry, 2022).

Key:
hCB2R [1] = target: T1, hCB2R (Homo sapiens, UniProt P34972); experiment: DiscoveRx PathHunter βarrestin2 recruitment; type: cell-based
Method: βarrestin2 recruitment was quantified using the DiscoveRx PathHunter® assay. […] Detection solution was added to cells (DiscoveRx), and cells were incubated for 60 min at room temperature. Chemiluminescence was measured on a Cytation5 plate reader (top read, gain 200, integration time 10,000 ms).

[2] = tested on: human microglial cells (HMC3); experiment: IL-6 and IL-10 release (ELISA) in LPS/TNFα-stimulated HMC3 cells; type: cell-based
Method: The concentrations of pro-inflammatory (IL-6) and anti-inflammatory (IL-10) interleukins were determined by performing specific ELISA assays (MyBioSource, San Diego, CA, United States ) on collected culture media. Human microglial cells (HMC3) were exposed to pretreatment with test compounds for 1 h followed by stimulation with LPS (10 μg/ml)/TNFα (50 ng/ml) for 24 h. In competition experiments, the CB2R antagonist (SR144528, 1 μM) or the CB2R positive allosteric modulator (EC21a 1 or 10 μM) were administered 15 min before agonist administration.

hCB2R [3] = target: T1, hCB2R; experiment: [3H]CP55,940 radioligand displacement, CHO-K1 hCB2R membranes; type: binding
Method: CHO-K1 cells were thawed, diluted in Tris buffer (50 mM Tris [pH 7.4]) and homogenized in a 1 ml hand-held homogenizer. hCB1R and hCB2R CHO-K1 cell membranes were collected by cavitation in a pressure cell, and sedimented by ultracentrifugation. Pellets were resuspended in TME buffer (50 mM Tris, 5 mM MgCl2, 1 mM EDTA [pH 7.4]), and protein concentration was measured via the Bradford method according to the manufacturer’s directions (Bio-Rad Laboratories, Mississauga, ON). […] Radioligand binding began with the addition of CHO-K1 cell membranes (25 µg protein per sample). […] Brandel GF/B filter paper was soaked with wash buffer at 4 °C for at least 24 h. Each filter paper was washed 6 times with a 1.2 ml aliquot of Tris-binding buffer (pH 7.4), then air-dried and submerged in 5 ml of scintillation fluid (Ultima Gold XR, PerkinElmer). Liquid scintillation spectrometry was used to quantify radioactivity.

hCB1R = target: T2, hCB1R (Homo sapiens, UniProt P21554); experiment: [3H]CP55,940 radioligand displacement, CHO-K1 hCB1R membranes; type: binding; conditions: % [3H]CP55,940 bound, 1 nM radioligand, 2 h
T2 construct: expressed in transfected cells; host or cells: CHO-K1 (ATCC CCL-61) stably expressing hCB1R; membranes
T2 sequence (P21554 whole entry): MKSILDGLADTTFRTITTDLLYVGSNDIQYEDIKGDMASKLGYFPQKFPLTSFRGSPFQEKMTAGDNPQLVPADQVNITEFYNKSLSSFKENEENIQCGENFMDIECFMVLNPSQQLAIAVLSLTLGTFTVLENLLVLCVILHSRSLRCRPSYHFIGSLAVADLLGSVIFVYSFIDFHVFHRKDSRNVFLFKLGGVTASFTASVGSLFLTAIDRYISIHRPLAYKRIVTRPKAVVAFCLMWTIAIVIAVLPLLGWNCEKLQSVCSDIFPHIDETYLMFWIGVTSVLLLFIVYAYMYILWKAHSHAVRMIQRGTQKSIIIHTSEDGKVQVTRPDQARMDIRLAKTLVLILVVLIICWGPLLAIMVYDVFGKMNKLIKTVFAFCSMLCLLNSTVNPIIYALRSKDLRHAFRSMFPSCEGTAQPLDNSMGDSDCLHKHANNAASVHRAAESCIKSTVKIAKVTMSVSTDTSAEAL
Method: CHO-K1 cells were thawed, diluted in Tris buffer (50 mM Tris [pH 7.4]) and homogenized in a 1 ml hand-held homogenizer. hCB1R and hCB2R CHO-K1 cell membranes were collected by cavitation in a pressure cell, and sedimented by ultracentrifugation. Pellets were resuspended in TME buffer (50 mM Tris, 5 mM MgCl2, 1 mM EDTA [pH 7.4]), and protein concentration was measured via the Bradford method according to the manufacturer’s directions (Bio-Rad Laboratories, Mississauga, ON). […] Radioligand binding began with the addition of CHO-K1 cell membranes (25 µg protein per sample). Assays were performed for 120 min at 37°C and stopped by the addition of ice-cold Tris binding buffer (pH 7.4), followed by vacuum filtration using a 24-well sampling manifold (Brandel Cell Harvester; Brandel Inc., Gaithersburg, MD, United States ). Brandel GF/B filter paper was soaked with wash buffer at 4 °C for at least 24 h. Each filter paper was washed 6 times with a 1.2 ml aliquot of Tris-binding buffer (pH 7.4), then air-dried and submerged in 5 ml of scintillation fluid (Ultima Gold XR, PerkinElmer). Liquid scintillation spectrometry was used to quantify radioactivity.

hCB2R [4] = target: T1, hCB2R; experiment: DiscoveRx HitHunter inhibition of FSK-stimulated cAMP accumulation; type: cell-based
Method: Inhibition of FSK-stimulated cAMP accumulation was measured using the DiscoveRx HitHunter assay.

HMC3 cells = experiment: MTT assay, HMC3 cell viability; type: cell-based, human
Method: FIGURE 7 MTT assay performed with different concentrations of JR64a. Data represent means ± S.E.M. from n = 3 independent experiments, performed in triplicate. Statistical analysis was performed by ordinary one-way ANOVA followed by Tukey’s multiple comparison test. ^# p < 0.05 vs. control.

T1 sequence (P34972 whole entry): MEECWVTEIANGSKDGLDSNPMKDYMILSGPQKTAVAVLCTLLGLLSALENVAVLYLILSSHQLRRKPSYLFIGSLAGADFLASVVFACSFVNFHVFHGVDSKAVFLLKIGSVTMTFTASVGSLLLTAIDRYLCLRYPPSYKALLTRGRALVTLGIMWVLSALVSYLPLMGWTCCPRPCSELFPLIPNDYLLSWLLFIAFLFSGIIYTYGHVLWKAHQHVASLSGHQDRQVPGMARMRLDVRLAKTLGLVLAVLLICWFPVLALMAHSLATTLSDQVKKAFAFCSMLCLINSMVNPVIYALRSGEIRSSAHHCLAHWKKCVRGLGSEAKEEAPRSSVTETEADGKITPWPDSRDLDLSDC

Compound: Cc1c(Br)cn(CCCCCCCn2c(=O)c(C(=O)NC3CCC(C)CC3)cc3cccnc32)c(=O)c1NC(=O)C1CCCCCC1 (stereo not drawn) [JR64a, 1-(7-(5-bromo-3-(cycloheptanecarboxamido)-4-methyl-2-oxopyridin-1(2H)-yl)heptyl)-N-(4-methylcyclohexyl)-2-oxo-1,2-dihydro-1,8-naphthyridine-3-carboxamide]
- EC50 (hCB2R [1]): > 10000 nM
- βarrestin2 recruitment E max (% CP55,940) ± S.E.M (hCB2R [1]; CHO-K1 hCB2R, 90 min): 45 ± 2.4 % CP55,940
- Anti-inflammatory properties ([2]; 10 μM, LPS/TNFα-stimulated HMC3): good anti-inflammatory properties
- Anti-inflammatory activity (IL-6 and IL-10 levels) ([2]; 10 or 25 μM, 1 h pretreatment, then LPS/TNFα 24 h): marked anti-inflammatory activity
- Anti-inflammatory activity after pretreatment with CB2R antagonist SR144528 ([2]; SR144528 1 μM 15 min before agonist, LPS/TNFα 24 h): completely abolished
- IC50 (hCB2R [3]): 0.6 nM
- hCB2R E min (% CP55,940) ± S.E.M (hCB2R [3]; % [3H]CP55,940 bound, 1 nM radioligand, 2 h): 20 ± 10.3 % CP55,940
- hCB1R E min (% CP55,940) ± S.E.M (hCB1R): 104 ± 4.7 % CP55,940
- melting point: 121 °C (dec.)
- EC50 (hCB2R [4]): 8.6 nM
- Response in inhibition of FSK-stimulated cAMP accumulation (hCB2R [4]; CHO-K1 hCB2R): modest partial agonist activity
- Inhibition of cAMP E max (% CP55,940) ± S.E.M (hCB2R [4]; CHO-K1 hCB2R, 10 µM FSK, 90 min): 38 ± 0.74 % CP55,940
- HMC3 cytotoxicity (HMC3 cells; 10 μM): no relevant HMC3 cytotoxicity
- Decrease in cell viability (HMC3 cells; 25 μM): ~10%
- Cytotoxic effects in HMC3 cells (HMC3 cells; 1 and 10 μM): no relevant cytotoxic effects
